Data set [1] deals with Pseudaletia separata. The data set can be described thus: whole plant or invertebrate. It is filed as in vivo. As to conditions: Mythimna separata, in Zea mays, foliar, 120 h. The method, then: Efficacy Against Pseudaletia separata Walker (Ps; Rice Armyworm)
A piece of Maize leaf (ca. 7×1.5 cm) was dipped in the chemical solution at 125 ppm for 30 sec and air-dried. The leaf was placed in a glass petri dish (9 cm diameter) and five second-instar larvae of Pseudaletia separata were introduced into the petri dish. Five days after the treatment, the number of survival larvae was counted and the mortality was calculated by Abbott's formula. Each test was duplicated.

For data set [2], the system named is Tetranychus urticae. The data set can be described thus: Efficacy against Tetranychus urticae (two-spotted spider mites), spray on kidney-bean seedling. Particulars: in vivo. The method, then: Efficacy Against Tetranychus urticae (Tu; Two-spotted Spider Mites
Fifteen adult females were inoculated on a potted Kidney-bean seedling. On the next day, the chemical solution at different concentration was sprayed on the Kidney-bean seedling by a glass nozzle using an air compressor. After air-dried the Kidney-bean pot was maintained in a room kept at 25° C. and 65%RH.
On three days after treatment, the numbers of dead and alive mites were counted and mortality was calculated by Abbott's formula.
Each test was duplicated. [formula]

For data set [3], the system named is Plutella xylostella. The data set can be described thus: whole plant or invertebrate. Particulars: in Brassica oleracea, 72 h. It is filed as in vivo. The text has this: Efficacy Against Plutella xylostella Linne (Px; Diamondback Moth)
The chemical solution at 125 ppm was sprayed on a Cabbage seedling by a glass nozzle using an air compressor. After airdried, a small leaf (ca. 5 cm diameter) was detached from the treated plant and placed in a glass petri dish (ca. 9 cm diameter). Five second-instar larvae of Plutella xylostella were introduced into the petri dish. Three days after the treatment, the number of survival larvae was counted and the mortality was calculated by Abbott's formula. Each test was duplicated.

Molecule `O=C(Nc1nc(C(F)(F)F)c(Br)s1)c1cccs1` [Compound 34, N-(5-Bromo-4-trifluoromethylthiazol-2-yl)thiophene-2-carboxamide] had a melting point of 184 to 185 °C. In data set [1], `O=C(Nc1nc(C(F)(F)F)c(-c2ccc(F)cc2)s1)c1ccc(C(F)(F)F)cc1` [Compound 81, N-(5-(4-Fluorophenyl)-4-trifluoromethylthiazol-2-yl)-4-trifluoromethylbenzamide] came in with a mortality at 125 ppm of 100%. For the molecule `O=C(Nc1nc(C(F)(F)F)c(Br)s1)c1ccc(Cl)c(Cl)c1` [Compound 19, N-(5-Bromo-4-trifluoromethylthiazol-2-yl)-3,4-dicloro-benzamide], the mortality in data set [2] is recorded as 100%. For `O=C(Nc1nc(C(F)(F)F)c(Cl)s1)c1ccc(Cl)c([N+](=O)[O-])c1` [Compound 80, N-(5-Chloro-4-trifluoromethylthiazol-2-yl)-4-chloro-3-nitrobenzamide], the melting point lay within 183 to 184 °C. As to `O=C(Nc1nc(C(F)(F)F)c(I)s1)c1c(Cl)cccc1Cl` [Compound 44, N-(5-Iodo-4-trifluoromethylthiazol-2-yl)-2,6-dichloro-benzamide], in data set [1], the mortality at 125 ppm amounted to 100%. `N#CSc1sc(NC(=O)c2cccc(C(F)(F)F)c2)nc1C(F)(F)F` [Compound 131, N-(5-thiocyanato-4-trifluoromethylthiazol-2-yl)-3-trifluoromethylbenzamide] came in with a melting point of 167 to 168 °C. On the same count and under the same terms, next, `O=C(Nc1nc(C(F)(F)F)c(I)s1)c1cc(C(F)(F)F)cc(C(F)(F)F)c1` [Compound 102, N-(5-Iodo-4-trifluoromethylthiazol-2-yl)-3,5-bis-trifluoromethylbenzamide]: 172 to 173 °C.

As to `O=C(Nc1nc(C(F)(F)F)c(I)s1)c1ccc(C(F)(F)F)cc1` [Compound 45, N-(5-Iodo-4-trifluoromethylthiazol-2-yl)-4-trifluoromethyl-benzamide], the mortality at 125 ppm in data set [3] and in data set [1] was 100% each time.

As a reminder, the melting point is the temperature of the solid-liquid transition. One may read the mortality as the share of the test organisms that died. Lower therefore signals a weak lethal effect.

For the origin of these results see patent US6737382B1, “Insecticidal aminothiazole derivatives” (Nippon Soda Co. Ltd., priority 2002, dated 2004).
